For 38 molecules, inhibition results are on record in US8883793B2, “Tubulin inhibitors and methods of using the same” (Development Center for Biotechnology, priority 2010, dated 2014).

The test system of this assay is KB cell. Nature of the assay: MTS assay, growth inhibition of KB cells. It counts as cell-based. Particulars: Homo sapiens, at 10 μM concentration, incubated for 72 h, read-out: Inhibition rate (%) (growth inhibition rate of MTS assay). As for the experimental part: MTS assay was performed in determining the growth inhibition of cancer cells. MTS ((3-(4,5-dimethylthiazol-2-yl)-5-(3-carboxymethoxyphenyl)-2-(4-sulfophenyl)-2H-tetrazolium)), in the presence of phenazine methosulfate (PMS) and reductases, produces a formazan product that has an absorbance maximum at 490-500 nm. MTS assays (and closely related MTT assay) are commonly used to measure cell viabilities or survivals.
Briefly, KB/Hela, NCI-H460, A375, Colo205, HCT-116, U937, MCF-7, MDA-MB-231, A549, H1975 cells were seeded into 96-well plate at 4000, 4000, 2000, 2000, 2000 cells/well. After 24 h for attachment, test compound was added into each well and incubated for 72 h. A total of 20 μl of MTS reaction reagent containing the MTS (Promega, Madison, Wis.) and PMS in a ratio of 20:1 was added into each well to react with dehydrogenase enzyme in survival cells. After 3 h, the absorbance at 490 nm was monitored using Emax precision microplate reader (Molecular Devices, Sunnyvale, Calif.).
The growth inhibition rate of MTS assay at KB cell of these compounds (at 10 μM concentration) are list in Table 5.
On the technique in general: Formazan colour is commonly taken as a measure of viable cells.
For orientation: inhibition means the relative decrease from the control value, in per cent. Consider `O=C(CCc1ccccc1)Nc1ncc(Cc2ccccc2)s1` [Compound 2, N-(5-Benzyl-thiazol-2-yl)-3-phenyl-propionamide], for which the inhibition at 10 µM was determined as 95.5%. Regarding `O=C(/C=C/c1ccccc1)Nc1ncc(Cc2ccccc2)s1` [Compound 3, N-(5-Benzyl-thiazol-2-yl)-3-phenyl-acrylamide], the inhibition at 10 µM came out at 94.3%. The value for `O=C(CCc1ccc(F)cc1)Nc1ncc(Cc2ccc3c(c2)OCO3)s1` [Compound 7, N-(5-Benzo[1,3]dioxol-5-ylmethyl-thiazol-2-yl)-3-(4-fluoro-phenyl)-propionamide] was 91.7%.

In the case of `O=C(CCc1cccnc1)Nc1ncc(Cc2ccc3c(c2)OCO3)s1` [Compound 8, N-(5-Benzo[1,3]dioxol-5-ylmethyl-thiazol-2-yl)-3-pyridin-3-yl-propionamide], the inhibition at 10 µM came out at 90.6%. In the case of `COc1ccc2cc(Cc3cnc(NC(=O)CCc4ccccc4)s3)ccc2c1` [Compound 14, N-[5-(6-Methoxy-naphthalen-2-ylmethyl)-thiazol-2-yl]-3-phenyl-propionamide], the inhibition at 10 µM was 89.5%.

Turning to `COc1ccc(CCC(=O)Nc2ncc(Cc3ccc(OC)cc3)s2)cc1` [Compound 15, N-[5-(4-Methoxy-benzyl)-thiazol-2-yl]-3-(4-methoxy-phenyl)-propionamide], the inhibition at 10 µM worked out at 93%.

Regarding `COc1ccc(Cc2cnc(NC(=O)CCc3ccncc3)s2)cc1` [Compound 16, N-[5-(4-Methoxy-benzyl)-thiazol-2-yl]-3-pyridin-4-yl-propionamide], the inhibition at 10 µM came out at 62%. `COc1ccc(Cc2cnc(NC(=O)CCc3ccc(F)cc3)s2)cc1OC` [Compound 18, N-[5-(3,4-Dimethoxy-benzyl)-thiazol-2-yl]-3-(4-fluoro-phenyl)-propionamide]: the inhibition at 10 µM was 96.6%. The result for `COc1ccc2cc(Cc3cnc(NC(=O)CCc4ccc(C)o4)s3)ccc2c1` [Compound 19, N-[5-(6-Methoxy-naphthalen-2-ylmethyl)-thiazol-2-yl]-3-(5-methyl-furan-2-yl)-propionamide] reads 94.1%. On to `COc1ccc(CCC(=O)Nc2ncc(Cc3ccc(OC)c(OC)c3)s2)cc1` [Compound 20, N-[5-(3,4-Dimethoxy-benzyl)-thiazol-2-yl]-3-(4-methoxy-phenyl)-propionamide], for which the inhibition at 10 µM turned out to be 93.4%.

On to `Cc1ccc(CCC(=O)Nc2ncc(Cc3ccc4ccccc4c3)s2)o1` [Compound 21, 3-(5-Methyl-furan-2-yl)-N-(5-naphthalen-2-ylmethyl-thiazol-2-yl)-propionamide], for which the inhibition at 10 µM was 97.1%.

Turning to `O=C(CCc1ccccc1)Nc1ncc(Cc2ccc3ccccc3c2)s1` [Compound 22, N-(5-Naphthalen-2-ylmethyl-thiazol-2-yl)-3-phenyl-propionamide], the inhibition at 10 µM worked out at 95.6%. `O=C(CCc1ccc(F)cc1)Nc1ncc(Cc2ccc3ccccc3c2)s1` [Compound 23, 3-(4-Fluoro-phenyl)-N-(5-naphthalen-2-ylmethyl-thiazol-2-yl)-propionamide]: the inhibition at 10 µM is 95.8%. The result for `O=C(CCc1cccnc1)Nc1ncc(Cc2ccc3ccccc3c2)s1` [Compound 24, N-(5-Naphthalen-2-ylmethyl-thiazol-2-yl)-3-pyridin-3-yl-propionamide] reads 95.2%. The value for `O=C(CCc1ccccc1)Nc1ncc(Cc2ccc(F)c(F)c2)s1` [Compound 25, N-[5-(3,4-Difluoro-benzyl)-thiazol-2-yl]-3-phenyl-propionamide] was 94.2%; that for `COc1cccc(CCC(=O)Nc2ncc(Cc3ccc(F)c(F)c3)s2)c1` [Compound 26, N-[5-(3,4-Difluoro-benzyl)-thiazol-2-yl]-3-(3-methoxy-phenyl)-propionamide] was 92.9%; that for `O=C(CCc1cccnc1)Nc1ncc(Cc2ccc(F)c(F)c2)s1` [Compound 27, N-[5-(3,4-Difluoro-benzyl)-thiazol-2-yl]-3-pyridin-3-yl-propionamide] was 91.2%. The value for `O=C(CCc1ccc(F)cc1)Nc1ncc(Cc2ccc(F)c(F)c2)s1` [Compound 28, N-[5-(3,4-Difluoro-benzyl)-thiazol-2-yl]-3-(4-fluoro-phenyl)-propionamide] was 95%; that for `COc1cccc(CCC(=O)Nc2ncc(Cc3ccc(OC)c(OC)c3)s2)c1` [Compound 29, N-[5-(3,4-Dimethoxy-benzyl)-thiazol-2-yl]-3-(3-methoxy-phenyl)-propionamide] was 96.6%; that for `Cc1ccc(CCC(=O)Nc2ncc(Cc3ccc(F)c(F)c3)s2)o1` [Compound 30, N-[5-(3,4-Difluoro-benzyl)-thiazol-2-yl]-3-(5-methyl-furan-2-yl)-propionamide] was 92.3%. For `COc1ccc(Cc2cnc(NC(=O)CCc3ccc(C)o3)s2)cc1OC` [Compound 31, N-[5-(3,4-Dimethoxy-benzyl)-thiazol-2-yl]-3-(5-methyl-furan-2-yl)-propionamide], the inhibition at 10 µM is 95.8%. Consider `O=C(Nc1ncc(Cc2ccc(F)c(F)c2)s1)OCc1ccccc1` [Compound 32, [5-(3,4-Difluoro-benzyl)-thiazol-2-yl]-carbamic acid benzyl ester], for which the inhibition at 10 µM was 52.7%. Turning to `O=C(Nc1ncc(Cc2ccc3c(c2)OCO3)s1)OCc1ccccc1` [Compound 33, (5-Benzo[1,3]dioxol-5-ylmethyl-thiazol-2-yl)-carbamic acid benzyl ester], the inhibition at 10 µM came to 92.4%. As to `O=C(CCc1ccccc1)Nc1ncc(Cc2c(F)c(F)c(F)c(F)c2F)s1` [Compound 34, N-(5-Pentafluorophenylmethyl-thiazol-2-yl)-3-phenyl-propionamide], the inhibition at 10 µM is 92.8%.

As for `COc1cccc(CCC(=O)Nc2ncc(Cc3c(F)c(F)c(F)c(F)c3F)s2)c1` [Compound 35, 3-(3-Methoxy-phenyl)-N-(5-pentafluorophenylmethyl-thiazol-2-yl)-propionamide], the inhibition at 10 µM was determined as 90.4%. In the case of `O=C(CCc1cccnc1)Nc1ncc(Cc2c(F)c(F)c(F)c(F)c2F)s1` [Compound 36, N-(5-Pentafluorophenylmethyl-thiazol-2-yl)-3-pyridin-3-yl-propionamide], the inhibition at 10 µM was 94.3%.

For `O=C(CCc1cccc(F)c1)Nc1ncc(Cc2ccc3ccccc3c2)s1` [Compound 37, 3-(3-Fluoro-phenyl)-N-(5-naphthalen-2-ylmethyl-thiazol-2-yl)-propionamide], the inhibition at 10 µM stood at 94.4%. For `COc1cccc(CCC(=O)Nc2ncc(Cc3ccc4ccccc4c3)s2)c1` [Compound 38, 3-(3-Methoxy-phenyl)-N-(5-naphthalen-2-ylmethyl-thiazol-2-yl)-propionamide], the inhibition at 10 µM was found to be 94.2%. For `O=C(CCc1ccc(F)cc1)Nc1ncc(Cc2ccc(-c3ccccc3)cc2)s1` [Compound 39, N-(5-Biphenyl-4-ylmethyl-thiazol-2-yl)-3-(4-fluoro-phenyl)-propionamide], the inhibition at 10 µM worked out at 94%. On to `O=C(CCc1cccnc1)Nc1ncc(Cc2ccc(-c3ccccc3)cc2)s1` [Compound 40, N-(5-Biphenyl-4-ylmethyl-thiazol-2-yl)-3-pyridin-3-yl-propionamide], for which the inhibition at 10 µM was determined as 58.8%. Turning to `COc1cc(Cc2cnc(NC(=O)CCc3ccccc3)s2)ccc1OC(=O)OCc1ccccc1` [Compound 41, Carbonic acid benzyl ester 2-methoxy-4-[2-(3-phenyl-propionylamino)-thiazol-5-ylmethyl]-phenyl ester], the inhibition at 10 µM was determined as 95.8%. With `COc1cc(Cc2cnc(NC(=O)CCc3cccnc3)s2)ccc1OC(=O)OCc1ccccc1` [Compound 42, Carbonic acid benzyl ester 2-methoxy-4-[2-(3-pyridin-3-yl-propionylamino)-thiazol-5-ylmethyl]-phenyl ester], the inhibition at 10 µM amounted to 91.2%. Take `COc1cccc(CCC(=O)Nc2ncc(Cc3ccc(OC(=O)OCc4ccccc4)c(OC)c3)s2)c1` [Compound 43, Carbonic acid benzyl ester 2-methoxy-4-{2-[3-(3-methoxy-phenyl)-propionylamino]-thiazol-5-ylmethyl}-phenyl ester]: the inhibition at 10 µM amounted to 95.6%. The result for `COc1ccc(Cc2cnc(NC(=O)/C=C/c3ccc(C)o3)s2)cc1` [Compound 44, N-[5-(4-Methoxy-benzyl)-thiazol-2-yl]-3-(5-methyl-furan-2-yl)-acrylamide] reads 93.1%; that for `O=C(CCc1ccc(F)cc1)Nc1ncc(Cc2ccc(C(F)(F)F)cc2)s1` [Compound 45, 3-(4-Fluoro-phenyl)-N-[5-(4-trifluoromethyl-benzyl)-thiazol-2-yl]-propionamide], 94%; that for `O=C(CCc1cccnc1)Nc1ncc(Cc2ccc(C(F)(F)F)cc2)s1` [Compound 46, 3-Pyridin-3-yl-N-[5-(4-trifluoromethyl-benzyl)-thiazol-2-yl]-propionamide], 96%. The result for `COc1cccc(CCC(=O)Nc2ncc(Cc3ccc(C(F)(F)F)cc3)s2)c1` [Compound 48, 3-(3-Methoxy-phenyl)-N-[5-(4-trifluoromethyl-benzyl)-thiazol-2-yl]-propionamide] reads 95.3%; that for `COc1cc(Cc2cnc(NC(=O)CCc3cccnc3)s2)cc(OC)c1OC` [Compound 50, 3-Pyridin-3-yl-N-[5-(3,4,5-trimethoxy-benzyl)-thiazol-2-yl]-propionamide], 97.2%.
